Experiment [1] deals with Invasive S. pneumoniae. Kind of experiment: Broth macrodilution MIC and MBC, clinical isolates.
Experiment [2] relates to ATCC 14154, mouse virulent Staphylococcus aureus. Kind of experiment: Mouse model of topical Gram positive (Staphylococcus aureus) infection, infected suture. The format is in vivo. The conditions noted are these: mice; for Total colonies (number of Staph colonies per suture), individual animals: animals 1-10; for Total colonies (number of Staph colonies per suture), Ave.: average of 10 animals. As to the method: The model, as described in J. Gisby and J. Bryant, Antimicrobial Agents and Chemotherapy, February 2000, Vol. 44, No. 2, p 255-260, was used.
Fifty HSD:ICR male mice weighing 12-14 grams were ordered and allowed to acclimate 7 days. Mice were allocated to 5 groups of 10 animals each.
Group 1: infected suture placed, no treatment
Group 2: topical GRPB, 12.5 mg/kg BID×7 days
Group 3: topical GRPB, 25 mg/kg BID×7 days
Group 4: clean suture, no treatment
Group 5: enrofloxacin (Baytril) 10 mg/kg SQ SID×7 days
ATCC 14154, mouse virulent Staphylococcus aureus was grown in BHI broth overnight (12 hours) at 38 degrees C. Forty-five minutes prior to surgery, silk suture (2-0 size, 1 cm lengths w/swaged-on blunt needle) was soaked in the broth for 30 minutes, excess liquid was then removed by blotting with filter paper.
Mice were anesthetized with a ketamine (40 mg/kg), midazolam (2 mg/kg), and butorphanol (0.1 mg/kg) as a single IP injection.
The skin on the back of the mouse was prepared for aseptic surgery by clipping, cleansing with iodine scrub, and rinsing with alcohol. Mice were kept warm during surgery on a recirculating hot water blanket.
The suture was placed just under the skin on the dorsum of the animal using sterile instruments. The suture was knotted in the subcutaneous tissue to keep it in place. A half-thickness skin wound was made over the suture using the side of an 18 gauge needle as a scalpel.
Mice were allowed to recover in the home cage.
GRPB-10-15A was reconstituted as directed, using a minimal amount of methanol followed by dilution to required volume in sterile physiologic saline.
Injections were given using insulin syringes with 30 gauge needles. Topical administration was placed over the wound site. The mice were first treated 4 hours after surgery and were treated once or twice daily thereafter.
After 7 days of treatment animals were euthanized with IP pentobarbital euthanasia solution. The suture lengths were removed and placed in 2 mls phosphate buffered saline. Serial dilutions were performed and results reported as actual counts (number of Staph colonies per suture).

For experiment [3], the system named is Listeria monocytogenes, clinical isolate. The experiment is described as follows: Effect of pH on broth macrodilution MICs. The format is cell-based.
The subject of experiment [4] is Micrococcus luteus Presque Isle 456. The experiment is described as follows: Broth macrodilution MIC and MBC, reference strains.
For experiment [5], the system named is Enterococcus faecalis ATCC 29212. Kind of experiment: Broth macrodilution MIC and MBC, reference strains. The conditions noted are these: ATCC29212.
Experiment [6] concerns Micrococcus luteus Presque Isle 456. The experiment is described as follows: Disk diffusion susceptibility testing. On the technique in general: Agar diffusion results depend on both activity and mobility in agar.
Experiment [7] deals with Cryptococcus neoformans ATCC 90112. Kind of experiment: Disk diffusion susceptibility testing.
Experiment [8] deals with S. aureus ATCC 29213. Kind of experiment: Effect of pH on broth macrodilution MICs. Type of experiment: cell-based, Staphylococcus aureus.
The subject of experiment [9] is Staphylococcus aureus ATCC 29213. The experiment is described as follows: Disk diffusion susceptibility testing.
The test system of experiment [10] is Lactobacillus spp. The experiment is described as follows: Broth macrodilution MIC and MBC, clinical isolates. The conditions noted are these: clinical isolate, 1 strain.
Experiment [11] relates to R. equi. Kind of experiment: Broth macrodilution MIC and MBC, clinical isolates. The conditions noted are these: 3 strains.
[12] abbreviates: Group 2 low GRPB, topical 12.5 mg/kg BID×7 days.
[13] abbreviates: Group 3 high GRPB, topical 25 mg/kg BID×7 days.
The mark [14] stands for this setting: pH 6, range of 3 determinations.
The mark [15] stands for this setting: pH 8, range of 3 determinations.

The text below walks through data of patent publication US20030216361A1, “Therapeutic compositions effective against gram positive bacteria” (priority 2000, published 2003).

Converted amounts (≈) assume the structure as drawn. “And” between values parts separate entries of the source, which are not always exact repeats. Equal entries are not always repeated. Marks after values point to notes of the source that are not given here.

One may read the MIC50 as the lowest concentration that inhibits either 50% of growth or 50% of the strains tested, depending on the study. A low value points to higher susceptibility. By MBC is commonly meant the smallest concentration meeting the test's criterion for killing. A high value points to weaker bactericidal potency. In the case of `CC(=O)O[C@H]1CC[C@@]2(C)[C@@H](CC[C@@H]3[C@@H]2CC[C@]2(C)[C@@H](NC(=O)[C@@H]4CCCN4)CC[C@@H]32)C1`, the MIC50 in experiment [1] (Streptococcus pneumoniae) turned out to be 8 µg/mL (≈ 18.6 µM). In addition, the “MBC Range” value in [1] (clinical isolates, 15 strains) was 8 to 64 µg/mL; in experiment [10] it was 32 µg/mL (≈ 74.3 µM); in experiment [11] it was 16 to 32 µg/mL. Also, in experiment [1] (invasive S. pneumoniae), the “share of strains with MBC/MIC ratios ≦2” value is reported as 93%. For the same compound, the “Total colonies (number of Staph colonies per suture), individual animals” value in [2] (setting [12]) was 227 colonies per suture and 1993 colonies per suture and 832 colonies per suture and 317 colonies per suture and 1174 colonies per suture and 399 colonies per suture and 2523 colonies per suture and 968 colonies per suture and 739 colonies per suture and 1109 colonies per suture; in experiment [2] (setting [13]) it was 890* colonies per suture and 328 colonies per suture and 483 colonies per suture and 289 colonies per suture and 626 colonies per suture and 572 colonies per suture and 456 colonies per suture and 344 colonies per suture and 565 colonies per suture and 362 colonies per suture. Further, the “Total colonies (number of Staph colonies per suture), Ave.” value in [2] (setting [12]) is on record as 1028 colonies per suture; in [2] (setting [13]), 492 colonies per suture. Also, the MIC Range in experiment [3] (setting [14]) is 32 µg/mL (≈ 74.3 µM); in [3] (setting [15]) it was 16 µg/mL (≈ 37.2 µM); in experiment [8] (setting [14]) it was 8 to 16 µg/mL; in [8] (pH 7, range of 3 determinations), 8 µg/mL (≈ 18.6 µM); in experiment [8] (setting [15]), 4 µg/mL (≈ 9.29 µM); in [10], 16 µg/mL (≈ 37.2 µM). Further, the “MIC Range” value in experiment [11] (read after 48 h) was 4 to 8 µg/mL. The values for the MBC in experiment [4] and in experiment [5] were 64 µg/mL (≈ 149 µM) and 32 µg/mL (≈ 74.3 µM), respectively. Moreover, the MIC in experiment [4] was 8 µg/mL (≈ 18.6 µM); in experiment [5] it was 16 µg/mL (≈ 37.2 µM); in experiment [6], 1.56-3.12 μg/disk; in experiment [7], greater than 100 μg/disk; in experiment [9], 12.5-25 μg/disk.
